From patent publication US7612201B2, “Pyrazole compounds” (Vernalis (Cambridge) Limited, priority 2002, dated 2009)

test system: not listed separately; assay: Sulforhodamine B (SRB) growth inhibition assay; format: cell-based; settings: SRB growth arrest assay
Description: A growth inhibition assay was also employed for the evaluation of candidate HSP90 inhibitors:
Day 1 • 1) Determine cell number by haemocytometer. • 2) Using an 8 channel multipipettor, add 160 μl of the cell suspension (3600 cells/well or 2×10^4 cells/ml) to each well of a 96-well microtitre plate. • 3) Incubate overnight at 37° C. in a CO2 incubator.
Day 2 • 4) Stock solutions of drugs are prepared, and serial dilutions of each drug are performed in medium to give final concentrations in wells. • 5) Using a multipipettor, 40 μl of drug (at 5× final concentration) is added to quadruplicate wells. • 6) Control wells are at either side of the 96 well plates, where 40 μl of medium is added. • 7) Incubate plates in CO2 incubator for 4 days (48 hours).
Day 6 • 8) Tip off medium into sink and immerse plate slowly into 10% ice cold trichloroacetic acid (TCA). […] Leave for 15 mins. • 12) Wash off unbound SRB stain with four washes of 1% acetic acid. • 13) Dry plates in incubator. • 14) Solubilise SRB using 100 μl of 10 mM Tris base and put plates on plate shaker for 5 mins. • 15) Determine absorbance at 540 nm using a plate reader. Calculate mean absorbance for quadruplicate wells and express as a percentage of value for control, untreated wells. • 16) Plot % absorbance values versus log drug concentration and determine the IC50.

Structure (SMILES)	IC50 [µM]
Oc1cc(O)c(-c2n[nH]cc2N2CCNCC2)cc1Cl [Example 2, 4-Chloro-6-(4-piperazin-1-yl-1H-pyrazol-3-yl)-benzene-1,3-diol]	< 50

molecular target: T1, human full-length HSP90 (Homo sapiens, UniProt P08238); assay: Fluorescence polarization (FP) binding assay; settings: FP assay (asterisk in table), activity range
T1 construct: E. coli expressed human full-length HSP90 protein; made in house; host or cells: E. coli
T1 sequence (P08238 whole entry): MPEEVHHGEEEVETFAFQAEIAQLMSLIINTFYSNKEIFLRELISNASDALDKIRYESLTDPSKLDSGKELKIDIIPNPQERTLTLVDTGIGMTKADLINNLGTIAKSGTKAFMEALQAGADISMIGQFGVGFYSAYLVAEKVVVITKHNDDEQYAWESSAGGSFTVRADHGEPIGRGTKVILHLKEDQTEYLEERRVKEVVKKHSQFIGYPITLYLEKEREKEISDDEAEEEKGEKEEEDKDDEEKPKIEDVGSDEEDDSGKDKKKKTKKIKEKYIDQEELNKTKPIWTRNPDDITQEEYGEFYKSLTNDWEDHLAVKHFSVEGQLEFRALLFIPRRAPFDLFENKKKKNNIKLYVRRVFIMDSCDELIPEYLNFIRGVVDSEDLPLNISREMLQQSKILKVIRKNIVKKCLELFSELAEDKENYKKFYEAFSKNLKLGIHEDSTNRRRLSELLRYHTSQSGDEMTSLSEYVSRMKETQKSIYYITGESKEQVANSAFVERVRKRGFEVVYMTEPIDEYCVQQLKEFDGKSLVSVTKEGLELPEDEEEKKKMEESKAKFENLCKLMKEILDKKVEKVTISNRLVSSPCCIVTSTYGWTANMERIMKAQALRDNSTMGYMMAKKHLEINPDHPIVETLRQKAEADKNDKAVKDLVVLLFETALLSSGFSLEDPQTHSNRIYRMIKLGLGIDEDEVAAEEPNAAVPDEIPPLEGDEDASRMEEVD
Excerpt: Fluorescence Polarization Assay
Fluorescence polarization {also known as fluorescence anisotropy} measures the rotation of a fluorescing species in solution, where the larger molecule the more polarized the fluorescence emission. When the fluorophore is excited with polarized light, the emitted light is also polarized. The molecular size is proportional to the polarization of the fluorescence emission.
The fluoroscein-labelled probe—RBT0045864-FAM—
[drawing 121] binds to HSP90 {full-length human, full-length yeast or N-terminal domain HSP90} and the anisotropy {rotation of the probe:protein complex} is measured.
Test compound is added to the assay plate, left to equilibrate and the anisotropy measured again. Any change in anisotropy is due to competitive binding of compound to HSP90, thereby releasing probe.
Chemicals are of the highest purity commercially available and all aqueous solutions are made up in AR water. • 1) Costar 96-well black assay plate #3915 • 2) Assay buffer of (a)100 mM Tris pH7.4; (b) 20 mM KCl; (c) 6 mM MgCl2. Stored at room temperature. • 3) BSA (bovine serum albumen) 10 mg/ml (New England Biolabs # B9001S) • 4) 20 mM probe in 100% DMSO stock concentration. Stored in the dark at RT. Working concentration is 200 nM diluted in AR water and stored at 4° C. Final concentration in assay 80 nM. • 5) E. coli expressed human full-length HSP90 protein, purified >95% (see, e.g., Panaretou et al., 1998) and stored in 50 μL aliquots at −80° C.
Protocol • 1) Add 100 μl 1× buffer to wells 11 A and 12A (=FP BLNK) • 2) Prepare assay mix—all reagents are kept on ice with a lid on the bucket as the probe is light-sensitive.
• 3) Aliquot 100 μl assay mix to all other wells • 4) Seal plate and leave in dark at room temp for 20 minutes to equilibrate
Compound Dilution Plate—1×3 Dilution Series • 1) In a clear 96-well v-bottom plate—{# VWR 007/008/257} add 10 μl 100% DMSO to wells B1 to H11 • 2) To wells A1 to A11 add 17.5 μl 100% DMSO • 3) Add 2.5 μl cpd to A1. This gives 2.5 mM {50×} stock cpd—assuming cpds 20 mM. • 4) Repeat for wells A2 to A10. Control in columns 11 and 12. • 5) Transfer 5 μl from row A to row B—not column 12. Mix well. • 6) Transfer 5 μl from row B to row C. […] In column 11 {provides standard curve} only add compound B11-H11. Add 2 μl of 100 mM standard cpd to wells B12-H12 {is positive control } • 13)The Z′ factor is calculated from zero controls and positive wells. It typically gives a value of 0.7-0.9.
The compounds tested in the above assay were assigned to one of two activity ranges, namely A=<10 μM; B=>10 μM, and those assignments are reported above.

IC50 [µM]	Structure (SMILES)
> 10	COc1ccc(CC(=O)N2CCN(c3c[nH]nc3-c3cc(Cl)c(O)cc3O)CC2)cc1 [Example 42]
< 10	CNC(=O)c1cccc(CN2CCN(c3c[nH]nc3-c3cc(Cl)c(O)cc3O)CC2)c1 [Example 44]
< 10	CCOC(=O)CN1CCN(c2c[nH]nc2-c2cc(Cl)c(O)cc2O)CC1 [Example 45]
< 10	O=C(O)CN1CCN(c2c[nH]nc2-c2cc(Cl)c(O)cc2O)CC1 [Example 46]
< 10	CC(=O)c1ccc(CN2CCN(c3c[nH]nc3-c3cc(Cl)c(O)cc3O)CC2)cc1 [Example 47]
< 10	O=S(=O)(c1ccsc1)N1CCN(c2c[nH]nc2-c2cc(Cl)c(O)cc2O)CC1 [Example 48]
< 10	Cc1[nH]nc(-c2cc(Cl)c(O)cc2O)c1N1CCNCC1 [Example 49, 4-Chloro-6-(5-methyl-4-piperazin-1-yl-1H-pyrazol-3-yl)-benzene-1,3-diol]
< 10	OCc1[nH]nc(-c2cc(Cl)c(O)cc2O)c1N1CCNCC1 [Example 50, 4-Chloro-6-(5-hydroxymethyl-4-piperazin-1-yl-1H-pyrazol-3-yl)-benzene-1,3-diol]
> 10	CC(=O)Nc1ccc(-c2n[nH]cc2N2CCNCC2)c(O)c1 [Example 53, 3-[4-Acetamido-2-hydroxyphenyl]-4-(piperazin-1-yl)-1H-pyrazole]
> 10	Cc1c[nH]c2cc(O)c(-c3n[nH]cc3N3CCNCC3)cc12 [Example 54, 3-Methyl-5-(4-piperazin-1-yl-1H-pyrazol-3-yl)-1H-indol-6-ol]

molecular target: T2, yeast HSP90 (Saccharomyces cerevisiae, UniProt P02829); assay: Malachite green ATPase assay; format: biochemical; settings: activity range
T2 construct: made in house; host or cells: E. coli
T2 sequence (P02829 whole entry): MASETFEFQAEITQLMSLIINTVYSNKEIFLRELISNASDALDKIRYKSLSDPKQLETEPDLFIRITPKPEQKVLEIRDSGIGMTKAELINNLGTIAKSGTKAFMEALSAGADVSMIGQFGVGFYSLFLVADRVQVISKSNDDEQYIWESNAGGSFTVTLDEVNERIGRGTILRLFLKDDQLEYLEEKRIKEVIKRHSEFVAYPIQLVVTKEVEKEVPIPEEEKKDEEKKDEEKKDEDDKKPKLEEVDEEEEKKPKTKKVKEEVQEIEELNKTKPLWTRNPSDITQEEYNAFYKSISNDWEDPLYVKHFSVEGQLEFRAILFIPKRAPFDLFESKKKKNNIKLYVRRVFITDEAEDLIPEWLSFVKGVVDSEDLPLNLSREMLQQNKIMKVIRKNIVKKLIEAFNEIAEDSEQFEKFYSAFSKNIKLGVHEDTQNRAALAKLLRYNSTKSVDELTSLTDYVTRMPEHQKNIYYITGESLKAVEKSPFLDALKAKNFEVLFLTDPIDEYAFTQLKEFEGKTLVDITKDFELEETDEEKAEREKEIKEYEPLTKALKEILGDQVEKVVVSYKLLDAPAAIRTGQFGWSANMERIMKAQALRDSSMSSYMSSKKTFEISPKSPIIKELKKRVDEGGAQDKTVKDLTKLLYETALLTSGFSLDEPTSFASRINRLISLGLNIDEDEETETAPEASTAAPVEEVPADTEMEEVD
Excerpt: The intrinsic ATPase activity of HSP90 may be measured using yeast HSP90 as a model system. The assay, based on the use of malachite green for the measurement of inorganic phosphate, was used to test the HSP90 inhibitory activity of the compounds of the Examples herein.
Malachite Green ATPase Assay
Chemicals are of the highest purity commercially available and all aqueous solutions are made up in AR water. Because of the need to minimise contamination with inorganic phosphate, precautions should be taken with solutions and apparatus used in the assays. Glassware and pH meters are rinsed with double distilled or deionised water before use and, wherever possible, plastic ware should be used. Gloves are worn for all procedures. • (1) Greiner 384-well (Greiner 781101) or Costar 384-well flat-bottomed polystyrene multiwell plates (VWR). • (2) Assay buffer of (a) 100 mM Tris-HCl, pH 7.4, (b) 150 mM KCl, (c) 6 mM MgCl2. Stored at room temperature. • (3) 0.0812% (w/v) malachite green (M 9636, Sigma Aldrich Ltd., Poole, UK). Stored at room temperature. • (4) 2.32% (w/v) polyvinyl alcohol USP (P 1097, Sigma Aldrich Ltd, Poole, UK) in boiling water (see Comment 1), allowed to cool, and stored at room temperature. • (5) 5.72% (w/v) ammonium molybdate in 6 M hydrochloric acid. Stored at room temperature. • (6) 34% (w/v) sodium citrate. Stored at room temperature. • (7) 100 mM ATP, disodium salt, special quality (47699, Sigma Aldrich). Stored at −20° C. • (8) E. coli expressed yeast HSP90 protein, purified >95% (see, e.g., Panaretou et al., 1998) and stored in 50 uL aliquots at −80° C.
Method • 1. Dilute test compounds to 500 μM in AR water (DMSO concentration will be 2.5%). Transfer 2.5 μl of these compounds directly from the daughter plate to the assay plate, giving a final assay concentration of 100 μM. To obtain 12 point IC50 values, perform serial dilutions 1:2 to produce a range of assay concentrations from 100 μM to 97.6 nM (2.5% DMSO), and transfer 2.5 μl of each concentration into the assay plate. Column 1 in the assay plate contains no compound, as a negative control. An additional row with no compound is also used as a background. • 2. Prepare ATP by diluting 100 mM stock to 925 μM with assay buffer, and aliquot 5 μl of diluted ATP to each well including controls (final assay concentration 370 μM). • 3. Add 5 μl of buffer to background row. • 4. Dilute enzyme preparation to 1.05 μM with assay buffer, and aliquot 5 μl into each compound well and to the negative control column. • 5. Collect the reagents to the bottom of the well, cover plate with plate seal and incubate overnight at 37 degC. • 6. First thing in the morning prepare the Malachite Green Reagent. Add 2 parts of Malachite Green Solution, 1 part of Polyvinyl Alcohol Solution, 1 part of Ammonium Molybdate Solution, and 2 parts of AR water. • 7. Invert to mix, and leave for approximately 1 hour until the colour turns from brown to golden yellow. • 8. Add 40 μl of Malachite Green Reagent to each well, allow 5 mins for colour to develop. • 9. Add 5 μl of Sodium Citrate Reagent to each well (see comment 2) • 10. Re-cover with plate seal and shake on plate shaker for at least 15 mins. • 11. Measure Absorbance at 620 nm using a suitable plate reader (e.g. Victor, Perkin Elmer Life Sciences, Milton Keynes, UK).
Comments • (1) The polyvinyl alcohol dissolves in boiling water with difficulty and stirring for 2-3 h is required. • (2) The time interval between addition of the malachite green reagent and the sodium citrate should be kept as short as possible in order to reduce the non-enzymatic hydrolysis of ATP. Once the sodium citrate is added, the colour is stable for up to 4 h at room temperature. • (3) Compounds can be added to the assay plates using a Biomek FX Robot (Beckman Coulter).

Structure (SMILES)	IC50 [µM]
Oc1cc(O)c(-c2n[nH]cc2N2CCNCC2)cc1Cl [Example 2, 4-Chloro-6-(4-piperazin-1-yl-1H-pyrazol-3-yl)-benzene-1,3-diol]	< 50
Cc1ccc(C)c(CCc2cc(-c3n[nH]cc3N3CCNCC3)c(O)cc2O)c1 [Example 74]	< 50
Cc1ccccc1CCc1cc(-c2n[nH]cc2N2CCNCC2)c(O)cc1O [Example 75]	< 50
COc1ccc(CCc2cc(-c3n[nH]cc3N3CCNCC3)c(O)cc2O)cc1 [Example 76]	< 50
Oc1cc(O)c(-c2n[nH]cc2N2CCC(NCc3ccccc3)CC2)cc1Br [Example 79]	< 50
Oc1cc(O)c(-c2n[nH]cc2N2CCC(NCc3ccc(F)cc3)CC2)cc1Br [Example 80]	< 50
COc1ccc(CNC2CCN(c3c[nH]nc3-c3cc(Br)c(O)cc3O)CC2)cc1 [Example 81]	< 50

Results, then the compound that gave them:

IC50 [µM]	Structure (SMILES)
< 50	Oc1cc(O)c(-c2n[nH]cc2N2CCC(NCc3ccc(Cl)cc3)CC2)cc1Br [Example 82]
< 50	Oc1cc(O)c(-c2n[nH]cc2N2CCC(NCc3ccc4c(c3)OCO4)CC2)cc1Br [Example 83]
< 50	O=[N+]([O-])c1ccc(CNC2CCN(c3c[nH]nc3-c3cc(Br)c(O)cc3O)CC2)cc1 [Example 84]
< 50	Oc1cc(O)c(-c2n[nH]cc2N2CCC(NCc3ccc(Br)cc3)CC2)cc1Br [Example 85]
< 50	NS(=O)(=O)c1ccc(CNC2CCN(c3c[nH]nc3-c3cc(Br)c(O)cc3O)CC2)cc1 [Example 86]
< 50	CCNC1CCN(c2c[nH]nc2-c2cc(Br)c(O)cc2O)CC1 [Example 97]
< 50	OCCNC1CCN(c2c[nH]nc2-c2cc(Br)c(O)cc2O)CC1 [Example 98]
